The target in test [1] is T1, Heparanase (Homo sapiens, UniProt Q9Y251).
T1 sequence (Q9Y251 whole entry): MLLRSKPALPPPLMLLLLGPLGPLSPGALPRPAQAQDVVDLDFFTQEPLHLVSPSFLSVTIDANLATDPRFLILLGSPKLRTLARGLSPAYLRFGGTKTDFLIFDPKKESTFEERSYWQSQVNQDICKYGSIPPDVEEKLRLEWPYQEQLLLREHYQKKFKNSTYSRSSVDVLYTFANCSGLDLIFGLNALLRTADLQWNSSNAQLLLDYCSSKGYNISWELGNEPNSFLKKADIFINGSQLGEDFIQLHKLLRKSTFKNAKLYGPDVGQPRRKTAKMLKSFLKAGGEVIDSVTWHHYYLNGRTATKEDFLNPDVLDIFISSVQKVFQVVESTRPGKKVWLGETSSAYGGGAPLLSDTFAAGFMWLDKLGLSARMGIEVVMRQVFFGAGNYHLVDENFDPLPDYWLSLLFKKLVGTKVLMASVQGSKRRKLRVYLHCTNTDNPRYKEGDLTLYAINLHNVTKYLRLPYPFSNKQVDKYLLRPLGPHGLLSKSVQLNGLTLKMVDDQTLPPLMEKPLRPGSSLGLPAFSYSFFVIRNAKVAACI
Nature of the test: Binding affinity to recombinant heparanase catalytic stie (unknown origin) expressed in Escherichia coli BL21 (DE3) by surface plasmon resonance assay.

Test [2] deals with T2, Heparanase (Homo sapiens) (UniProt Q9Y251).
T2 sequence (whole entry): T1 sequence (Q9Y251 whole entry)
Nature of the test: Binding affinity to recombinant heparanase catalytic stie (unknown origin) expressed in Escherichia coli BL21 (DE3) by NMR analysis.

In test [3] the target is T1, Heparanase. Nature of the test: Inhibition of recombinant heparanase catalytic stie (unknown origin) expressed in Escherichia coli BL21 (DE3).

Active and inactive are the calls of the source. The rule behind the calls is not given here. Some results are limits rather than exact numbers.

The Kd is the free concentration of one partner at which half of the binding sites on the other are occupied at equilibrium, for simple one-to-one binding. As for `COc1ccc(CCN2CCC(Nc3nc4ccccc4n3Cc3ccc(F)cc3)CC2)cc1` [ASTEMIZOLE], the dissociation constant (Kd) on Heparanase [1] is > 1000 µM. Also, in test [2], the result was Active.
Take `O=C(CN1CCCCC1)Nc1cc(CN2CCC(O)CC2)cc(Nc2ccnc3cc(Cl)ccc23)c1`: the Kd at Heparanase [1] was 1000 µM.
The IC50 is the concentration that gives 50% inhibition. For `CCCCCCCCCCCCCCCC(=O)C1=C(O)[C@@H](CO)OC1=O`, the IC50 at Heparanase [3] worked out at 17 µM.
For the compound `CCOc1ccc(Nc2ccnc3cc(Cl)ccc23)cc1CN1CCCC1`, the Kd at Heparanase [1] was 169 µM.
On to `CN1C[C@H](CNC(=O)OCc2ccccc2)C[C@@H]2c3cccc4c3c(cn4C)C[C@H]21` [METERGOLINE], for which, at Heparanase [1], the Kd was > 1000 µM. Also, the result in test [2] was Active.
For `COc1ccc([C@@H]2CC(=O)c3c(O)cc(O[C@@H]4O[C@H](CO[C@@H]5O[C@@H](C)[C@H](O)[C@@H](O)[C@H]5O)[C@@H](O)[C@H](O)[C@H]4O)cc3O2)cc1O` [HESPERIDIN], at Heparanase [1], the Kd was > 1000 µM. Further, in test [2], the outcome was Active.
Take `CCCCCCCCCCCCCCCC(=O)C1=C(OC)[C@@H](CO)OC1=O`: the IC50 on Heparanase [3] was > 100 µM.
Regarding `CN(C)CCCNC(=O)c1cc(NC(=O)CN2CCCCC2)cc(Nc2ccnc3cc(Cl)ccc23)c1`, the Kd on Heparanase [1] was > 1000 µM.
For the compound `COc1cc(N)c(Cl)cc1C(=O)NC1CCN(CCCOc2ccc(F)cc2)CC1OC` (stereo unspecified) [CISAPRIDE], the Kd on Heparanase [1] was > 1000 µM. In addition, the result in test [2] was Active.
For the compound `CCCCCCCCCCCCCCCc1cc(O[C@@H]2OC(C(=O)O)[C@H](O)[C@H](O)C2O)cc(O)c1C(=O)Oc1cc(C)c(C(=O)O)c(O)c1` (stereo partly specified), the IC50 at Heparanase [3] came out at 10 µM.
Turning to `Clc1ccc2c(Nc3ccc(-c4ccco4)c(CN4CCCC4)c3)ccnc2c1`, the Kd on Heparanase [1] is > 1000 µM.
Still for that read-out and setting: under `CCN(CC)Cc1cc(Nc2ccnc3cc(Cl)ccc23)ccc1N1CCOCC1` stands 239 µM.
For `CCN(CC)Cc1cc(Nc2ccnc3cc(Cl)ccc23)ccc1O`, the Kd at Heparanase [1] was found to be 52.6 µM. In addition, the result in test [2] was Active.
`O=C(CN1CCCCC1)Nc1cc(Nc2ccnc3cc(Cl)ccc23)cc(C(=O)N2CCOCC2)c1`: the Kd on Heparanase [1] was > 1000 µM.
Same read-out and setting: with `CCN(CC)Cc1cc(Nc2ccnc3cc(Cl)ccc23)ccc1Br` the figure was > 1000 µM.
For `O=C(O)c1ccccc1C(=O)c1ccc(Oc2ccccc2)c([N+](=O)[O-])c1`, on Heparanase [3], the IC50 came to 1 µM.
Turning to `CN(C)CCNCc1cc(NC(=O)CN2CCCCC2)cc(Nc2ccnc3cc(Cl)ccc23)c1`, at Heparanase [1], the Kd worked out at 639 µM.
In the case of `CC(CCc1ccccc1)NCC(O)c1ccc(O)c(C(N)=O)c1` (stereo unspecified) [LABETALOL], the Kd at Heparanase [1] came to 1000 µM. In addition, the outcome in test [2] was Active.
For the compound `C[C@@H]1O[C@@H](O[C@H]2[C@H](Oc3cc(O)c4c(c3)O[C@H](c3ccc(O)cc3)CC4=O)O[C@H](CO)[C@@H](O)[C@@H]2O)[C@H](O)[C@H](O)[C@H]1O` [NARINGIN], the Kd at Heparanase [1] was > 1000 µM. The outcome in test [2] was Active.

Values taken from ChEMBL document CHEMBL2346546, “Hit identification of novel heparanase inhibitors by structure- and ligand-based approaches” (Bioorg Med Chem, 2013).
